Our source for the GI50 and IC50 values is patent US8846704B2, “Thiopyrimidine-based compounds and uses thereof” (YM Biosciences Austraila Pty Ltd, priority 2007, dated 2014).

Assay [1] has as its target T1, BaF3 TELJAK2 cells (BafT_J2) (Homo sapiens, UniProt O60674).
T1 construct: fused on or other part: TEL (ETV6) N-terminal part, coding nucleotides 1-487, serves as the oligomerising partner; It is fused through a Sal I site to the JAK2 kinase domain and expressed from pTRE2 in BaF3 cells bearing pTET-off; P41212 (Transcription factor ETV6)
Briefly: Cellular screening, BaF3 TEL:JAK2 cells, Alamar Blue. Format: cell-based. To be noted: 40 hr, read-out: BafT_J2 IC50_nM. The procedure, abridged: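 Tet-off BaF3 cells carrying a TEL (nt 1-487)–JAK2 kinase-domain fusion, grown factor-independently in DMEM with 10% Tet-approved FBS without WEHI 3B medium. Compounds were diluted to 20 μM in screening plates, and cells (50,000–200,000 cell/mL at 1.1×) were incubated 40 hr at 37 °C, 5% CO2. Alamar Blue was then added for 4-6 hours; read at 544 nm.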

The target in the next assay is T2, human JAK2 (Homo sapiens, UniProt O60674).
T2 construct: The kinase domain of human JAK2 was amplified; GST (N); made in house; host or cells: Sf9 insect cells (baculovirus)
T2 sequence (O60674 849-1124 limits assumed): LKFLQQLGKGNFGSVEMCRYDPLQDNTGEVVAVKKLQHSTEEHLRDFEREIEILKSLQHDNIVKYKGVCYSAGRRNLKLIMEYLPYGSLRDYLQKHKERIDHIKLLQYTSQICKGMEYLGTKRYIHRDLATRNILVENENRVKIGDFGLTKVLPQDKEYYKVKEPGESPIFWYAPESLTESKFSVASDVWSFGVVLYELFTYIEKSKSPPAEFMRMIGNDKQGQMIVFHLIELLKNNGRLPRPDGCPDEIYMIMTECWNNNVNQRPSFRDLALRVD
Put plainly: Alphascreen tyrosine kinase enzyme assay, JAK2 kinase domain. Format: biochemical. To be noted: read-out: JAK2 IC50_nM. The procedure, abridged:
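JAK2 kinase domain expressed in baculovirus/Sf9 and glutathione-affinity purified. Compounds (final […]) pre-incubated 20 min with enzyme in 10 mM HEPES pH 7.5, MgCl2, NaCl, vanadate, 0.1% Tween 20.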

A further assay deals with T3, human JAK1 (Homo sapiens, UniProt P23458).
T3 construct: The kinase domain of human JAK1 was amplified; GST (N); made in house; host or cells: Sf9 insect cells (baculovirus)
T3 sequence (P23458 875-1153 limits assumed): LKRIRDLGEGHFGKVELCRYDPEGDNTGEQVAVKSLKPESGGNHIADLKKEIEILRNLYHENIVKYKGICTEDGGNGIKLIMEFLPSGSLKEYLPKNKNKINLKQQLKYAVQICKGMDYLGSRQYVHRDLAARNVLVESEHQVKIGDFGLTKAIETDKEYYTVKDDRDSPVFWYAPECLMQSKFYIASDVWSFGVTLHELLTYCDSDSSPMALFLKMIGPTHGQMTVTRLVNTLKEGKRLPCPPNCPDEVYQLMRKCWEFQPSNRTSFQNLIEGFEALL
Briefly: Alphascreen tyrosine kinase enzyme assay, JAK1 kinase domain. To be noted: read-out: JAK1 IC50_nM. Format: biochemical. How it is done: For screening purposes, compounds (in 100% DMSO) were warmed at 37 degrees for at least 20 minutes before use. A […] stock was initially made in assay buffer, where the final concentration of DMSO was 0.3%. The stocks were then diluted in 384 well Optiplates (Packard) where the final concentration of the compound was […].
The kinase domain of human JAK1 was amplified from U937mRNA using the polymerase chain reaction with the following primers: […]
The JAK1 PCR products were cloned into the pDest20 destination vector (Gibco). The JAK1 plasmid was then transformed into competent DH10Bac cells (Gibco), and the recombinant baculovirus was prepared via Sf9 insect cell transfection.
Baculovirus preparations from each of the constructs were infected into either one or five liters of Sf9 cells (Invitrogen) grown in SF-900 medium (Invitrogen) to a cell density of approximately 1-2×10^6 cells/ml. Cells were infected with virus at a MOI of 0.8-3.0. Cells were harvested and lysed. Tyrosine kinase domains were purified by affinity chromatography on a glutathione-agarose column (Scientifix Pty. Ltd. catalog #: GSH-200).
Kinase assays were performed in 384 well Optiplates (Packard) using an Alphascreen Protein Tyrosine Kinase PY100 detection kit The compounds were pre-incubated with affinity purified PTK domain in the presence of phosphotyrosine assay buffer (10 mM HEPES, pH 7.5, 100 mM MgCl2, 25 mM NaCl, […] and 0.1% Tween 20) for 20 minutes. The compounds were then incubated with substrate in the presence of ATP. The substrate used was susbtrate-1 with the sequence biotin-EGPWLEEEEEAYGWMDF-NH2 [SEQ. ID. NO. 13] (final concentration […]). For HCK 80 μm ATP was used and incubated for 60 minutes. Alphascreen phosphotyrosine acceptor beads followed by streptavidin donor beads at a concentration of 1/100 in stop buffer were added to each well under subdued light and incubated for 2-3 hours., The Alphascreen plates were read on a Packard Fusion Alpha instrument.

For the next assay, the system named is CTLL2. Put plainly: Cellular screening, CTLL2 cells, Alamar Blue. Format: cell-based. The note with it: Mus musculus, CTLL-2, read-out: CTLL2 IC50_nM. The essentials:
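Viability is read with Alamar Blue at 544 nm, the dye added for the final 4-6 hours. Compounds were incubated for 40 hr with CTLL2 cells taken from late-log-phase culture, at 37° C in 5% CO2.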

The subject of another assay is BaF3 wild-type cells. Put plainly: Cellular screening, BaF3 wild-type cells, Alamar Blue. The format is cell-based. To be noted: Mus musculus, 40 hr, read-out: BAF3wt IC50_nM. The procedure, abridged: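 Compounds, screened from dilution plates at 20 μM, were added as 10× final stocks to cells grown in DMEM/10% FCS/10% WEHI 3B conditioned medium. Cells were seeded at 1.1× final (50,000–200,000 cells/mL) and incubated 40 hr at 37° C, 5% CO2. Viability was read at 544 nm after a further 4–6 hours with Alamar Blue.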

A value given as a limit tells only on which side of the number the result lay.

T1 sequence (O60674 whole entry, change not shown, the tested form may be a part): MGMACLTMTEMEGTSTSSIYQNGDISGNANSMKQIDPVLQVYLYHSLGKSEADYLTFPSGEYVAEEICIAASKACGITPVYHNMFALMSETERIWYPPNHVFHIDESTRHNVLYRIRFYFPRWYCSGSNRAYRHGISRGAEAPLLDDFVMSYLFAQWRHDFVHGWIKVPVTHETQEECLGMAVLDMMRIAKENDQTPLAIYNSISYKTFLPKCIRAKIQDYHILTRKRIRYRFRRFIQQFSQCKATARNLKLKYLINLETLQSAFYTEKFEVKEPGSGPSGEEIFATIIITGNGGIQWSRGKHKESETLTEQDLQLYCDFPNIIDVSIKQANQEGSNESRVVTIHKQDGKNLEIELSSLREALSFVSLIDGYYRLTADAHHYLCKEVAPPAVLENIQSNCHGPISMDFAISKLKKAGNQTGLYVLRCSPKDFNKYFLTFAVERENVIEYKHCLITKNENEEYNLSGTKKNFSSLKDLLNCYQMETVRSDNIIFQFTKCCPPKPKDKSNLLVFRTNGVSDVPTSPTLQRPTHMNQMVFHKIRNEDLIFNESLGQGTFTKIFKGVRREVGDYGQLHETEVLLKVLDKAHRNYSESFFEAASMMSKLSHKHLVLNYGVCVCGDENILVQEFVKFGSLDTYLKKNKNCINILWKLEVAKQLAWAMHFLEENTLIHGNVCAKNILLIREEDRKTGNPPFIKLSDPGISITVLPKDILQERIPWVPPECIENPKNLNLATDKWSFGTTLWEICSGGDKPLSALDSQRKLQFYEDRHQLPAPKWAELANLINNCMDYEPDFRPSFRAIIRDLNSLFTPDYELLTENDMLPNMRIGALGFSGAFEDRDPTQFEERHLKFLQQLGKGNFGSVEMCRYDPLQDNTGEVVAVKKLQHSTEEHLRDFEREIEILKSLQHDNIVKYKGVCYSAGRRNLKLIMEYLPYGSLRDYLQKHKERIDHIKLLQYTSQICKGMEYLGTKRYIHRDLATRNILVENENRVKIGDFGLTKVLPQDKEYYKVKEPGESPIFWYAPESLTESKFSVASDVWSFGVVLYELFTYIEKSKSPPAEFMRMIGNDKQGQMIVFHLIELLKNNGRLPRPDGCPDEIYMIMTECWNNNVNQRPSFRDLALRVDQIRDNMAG

Take `OCc1ccc(Sc2ccnc(Nc3ccc(N4CCOCC4)cc3)n2)cc1` [Compound 67, (4-(2-(4-morpholinophenylao)pyrimidin-4-ylthio)phenyl)methanol]: in assay [1], the GI50 is below 20 µM. In addition, the IC50 on human JAK2 is below 0.5 µM; at human JAK1, below 1 µM; with CTLL2, below 20 µM; with BaF3 wild-type cells it was below 20 µM.
In the case of `N#CCNCc1cccc(Sc2ccnc(Nc3ccc(N4CCOCC4)cc3)n2)c1` [Compound 68, 2-(3-(2-(4-morpholinophenylao)pyrimidin-4-ylthio)benzylao)acetonitrile], the GI50 in assay [1] is below 20 µM. In addition, the IC50 at human JAK2 was below 0.1 µM; at human JAK1, below 1 µM; in the assay on CTLL2, above 20 µM; with BaF3 wild-type cells, above 20 µM.
Turning to `NCc1cccc(Sc2ccnc(Nc3ccc(N4CCOCC4)cc3)n2)c1` [Compound 75, 4-(3-(aomethyl)phenylthio)-N-(4-morpholinophenyl)pyrimidin-2-ae], in assay [1], the GI50 is below 20 µM. The IC50 at human JAK2 is below 1 µM; on human JAK1 it was below 0.5 µM; in the assay with CTLL2, below 20 µM; in the assay with BaF3 wild-type cells, below 20 µM.
`C=CC(=O)Nc1ccc(Sc2ccnc(Nc3cccc(N4CCOCC4)c3)n2)cc1` [Compound 77, N-(4-(2-(3-morpholinophenylao)pyrimidin-4-ylthio)phenyl)acrylamide]: the GI50 in assay [1] is below 5 µM. In addition, the IC50 at human JAK2 was above 1 µM; on human JAK1, above 1 µM; in the assay with CTLL2, below 1 µM; with BaF3 wild-type cells it was below 5 µM.
In the case of `C=CC(=O)Nc1ccc(Sc2ccnc(Nc3cc(C)cc(C)c3)n2)cc1` [Compound 82, N-(4-(2-(3,5-dimethylphenylao)pyrimidin-4-ylthio)phenyl)acrylamide], the GI50 in assay [1] is below 5 µM. Moreover, the IC50 on human JAK2 is above 1 µM; on human JAK1 it was above 1 µM; with CTLL2 it was below 20 µM; with BaF3 wild-type cells, below 20 µM.
Regarding `c1cc(Sc2ccc(Cn3cnnn3)cc2)nc(Nc2ccc(N3CCOCC3)cc2)n1` [Compound 109, 4-(4-((1H-tetrazol-1-yl)methyl)phenylthio)-N-(4-morpholinophenyl)pyrimidin-2-ae], in assay [1], the GI50 is below 20 µM. Moreover, the IC50 was below 1 µM at human JAK2, above 1 µM on human JAK1, above 20 µM in the assay with CTLL2 and below 20 µM in the assay with BaF3 wild-type cells.
As to `C=CC(=O)Nc1cccc(Sc2ccnc(Nc3cccc(N4CCOCC4)c3)n2)c1` [Compound 110, N-(3-(2-(3-morpholinophenylao)pyrimidin-4-ylthio)phenyl)acrylamide], the GI50 in assay [1] is below 20 µM. The IC50 at human JAK2 is above 1 µM; on human JAK1, above 1 µM; in the assay on CTLL2, below 5 µM; with BaF3 wild-type cells it was below 20 µM.
In the case of `C=CC(=O)NCc1ccc(Sc2ccnc(Nc3ccc(N4CCOCC4)cc3)n2)cc1` [Compound 111, N-(4-(2-(4-morpholinophenylamino)pyrimidin-4-ylthio)benzyl)acrylamide], the GI50 in assay [1] was below 20 µM. The IC50 at human JAK2 is above 1 µM; on human JAK1, above 1 µM; in the assay on CTLL2, below 5 µM; with BaF3 wild-type cells, below 20 µM.
In the case of `C=CC(=O)NCc1cccc(Sc2ccnc(Nc3ccc(N4CCOCC4)cc3)n2)c1` [Compound 112, N-(3-(2-(4-morpholinophenylamino)pyrimidin-4-ylthio)benzyl)acrylamide], the GI50 in assay [1] was below 20 µM. In addition, the IC50 at human JAK2 was above 1 µM; at human JAK1, above 1 µM; in the assay with CTLL2, below 20 µM; in the assay on BaF3 wild-type cells, above 20 µM.
In the case of `C=CC(=O)Nc1ccc(Sc2ccnc(Nc3ccc(N4CCOCC4)cc3)n2)cc1OC` [Compound 123, N-(2-methoxy-4-(2-(4-morpholinophenylao)pyrimidin-4-ylthio)phenyl)acrylamide], the GI50 in assay [1] is below 5 µM. In addition, the IC50 was above 1 µM at human JAK2, above 1 µM at human JAK1, below 20 µM in the assay with CTLL2 and below 5 µM in the assay on BaF3 wild-type cells.
Regarding `N#Cc1nnnn1Cc1ccc(Sc2ccnc(Nc3ccc(N4CCOCC4)cc3)n2)cc1` [Compound 155, 1-(4-(2-(4-morpholinophenylao)pyrimidin-4-ylthio)benzyl)-1H-tetrazole-5-carbonitrile], the GI50 in assay [1] is below 20 µM. For the same molecule, the IC50 was above 1 µM at human JAK2, above 1 µM on human JAK1, below 5 µM in the assay on CTLL2 and below 20 µM in the assay with BaF3 wild-type cells.
For the molecule `N#Cc1nnn(Cc2ccc(Sc3ccnc(Nc4ccc(N5CCOCC5)cc4)n3)cc2)n1` [Compound 156, 2-(4-(2-(4-morpholinophenylao)pyrimidin-4-ylthio)benzyl)-2H-tetrazole-5-carbonitrile], the GI50 in assay [1] was below 5 µM. For the same molecule, the IC50 was above 1 µM at human JAK2, above 1 µM on human JAK1, below 5 µM in the assay with CTLL2 and below 5 µM with BaF3 wild-type cells.
Regarding `Cc1cc(N)ccc1Sc1nc(Nc2ccc(N3CCOCC3)cc2)ncc1C` [Compound 162, 4-(4-ao-2-methylphenylthio)-5-methyl-N-(4-morpholinophenyl)pyrimidin-2-ae], the GI50 in assay [1] is below 20 µM. Moreover, the IC50 is below 1 µM on human JAK2, below 0.5 µM on human JAK1, below 5 µM in the assay on CTLL2 and below 20 µM in the assay on BaF3 wild-type cells.
As to `C=CC(=O)Nc1ccc(Sc2nc(Nc3ccc(N4CCOCC4)cc3)ncc2C)c(C)c1` [Compound 163, N-(3-methyl-4-(5-methyl-2-(4-morpholinophenylao)pyrimidin-4-ylthio)phenyl)acrylamide], in assay [1], the GI50 was above 20 µM. For the same molecule, the IC50 at human JAK2 was above 1 µM; on human JAK1, above 1 µM; with CTLL2, below 1 µM; with BaF3 wild-type cells it was above 20 µM.
Regarding `Cc1cnc(Nc2ccc(N3CCOCC3)cc2)nc1Sc1c(C)cc(N)cc1C` [Compound 165, 4-(4-ao-2,6-dimethylphenylthio)-5-methyl-N-(4-morpholinophenyl)pyrimidin-2-ae], in assay [1], the GI50 is above 20 µM. In addition, the IC50 at human JAK2 is above 1 µM; on human JAK1, above 1 µM; in the assay on CTLL2, above 20 µM; in the assay with BaF3 wild-type cells it was above 20 µM.
For the molecule `C=CC(=O)N(C)c1ccc(Sc2nc(Nc3ccc(N4CCOCC4)cc3)ncc2C)cc1` [Compound 173, N-methyl-N-(4-(5-methyl-2-(4-morpholinophenylao)pyrimidin-4-ylthio)phenyl)acrylamide], the GI50 in assay [1] was below 20 µM. In addition, the IC50 was below 0.5 µM on human JAK2, below 0.5 µM on human JAK1, below 1 µM in the assay on CTLL2 and below 20 µM with BaF3 wild-type cells.
As for `Cc1cnc(Nc2ccc(O)cc2)nc1Sc1ccc(NC(=O)CCl)cc1` [Compound 193, 2-chloro-N-(4-(2-(4-hydroxyphenylao)-5-methylpyrimidin-4-ylthio)phenyl)acetamide], the GI50 in assay [1] is below 5 µM. Also, the IC50 at human JAK2 is above 1 µM; on human JAK1, above 1 µM; in the assay with CTLL2, below 1 µM; in the assay on BaF3 wild-type cells it was below 5 µM.
As for `Cc1cnc(Nc2cccc(O)c2)nc1Sc1ccc(NC(=O)CCl)cc1` [Compound 194, 2-chloro-N-(4-(2-(3-hydroxyphenylao)-5-methylpyrimidin-4-ylthio)phenyl)acetamide], the GI50 in assay [1] was below 5 µM. Also, the IC50 is above 1 µM at human JAK2, above 1 µM at human JAK1, below 1 µM in the assay on CTLL2 and below 5 µM in the assay on BaF3 wild-type cells.
